Source: US9920074B2 (ACEA BIOSCIENCES INC., priority 2013, dated 2018)

Experiments:
[1] = target: T1, Btk (Tyr223) phosphorylation in Ramos cells (Homo sapiens, UniProt Q06187); assay: Western blotting assay for Btk (Example 73); type: cell-based; conditions: 45 min, 6 μg/mL anti-IgM, read-out: Btk Inhibition
T1 construct: endogenous in cells; host or cells: Ramos cells (ATCC)
Procedure: (§1) All cell lines were obtained from the American Type Culture Collection and were maintained at 37° C. with 5% CO2. Ramos cell line was maintained in media supplemented with 10% fetal bovine serum, penicillin (100 units/mL) and streptomycin (100 μg/mL). NK-92 cell line was maintained in media supplemented with 10% fetal bovine serum and 10% horse serum, penicillin (100 units/mL) and streptomycin (100 μg/mL), IL-2 10 ng/mL. Goat F(ab′)2 Anti-Human IgM-UNLB was obtained from SouthernBiotech. IL-2 was obtained from Peprotech.
Ramos cells were treated with compounds at indicated doses for 45 min at room temperature, followed by stimulation of 6 μg/mL of anti-IgM for 30 min, and then lysed. Western blots were performed on the cell lysate using Phospho-Btk (Tyr223), Phospho-Btk (Tyr551), Btk, Phospho-PLCγ2 (Tyr1217), PLCγ2, Phospho-p44/42 MAPK (Erk1/2) (Thr202/Tyr204) and p44/42 MAPK (Erk1/2) antibodies (Cell Signaling Technology). The density of blotting band was acquired using ImageJ software, and the IC50 of Btk (Tyr223) phosphorylation was fitted using a non-linear regression model by GraphPad Prism.

[2] = tested on: Stat5 phosphorylation in NK-92 cells; assay: Western blotting assay for Stat5; type: cell-based; conditions: NK92, 1 hour, IL-2 stimulation, read-out: Stat5 inhibition
Procedure: as §1
NK-92 cells were treated with compounds at the dosed indicated for 1 hour in incubator, followed by the IL-2 stimulation for 15 minutes. Cells were then collected and lysed to prepare the cellular extraction. Western blots were performed on cell lysate using Phospho-Jak3, Jak3, Phospho-Stat5, Stat5 antibodies (Cell Signaling Technology). The intensity of blotting band was acquired using Image Lab (Bio-Rad) software, and the IC50 of target was generated with GraphPad Prism.

T1 sequence (Q06187 whole entry): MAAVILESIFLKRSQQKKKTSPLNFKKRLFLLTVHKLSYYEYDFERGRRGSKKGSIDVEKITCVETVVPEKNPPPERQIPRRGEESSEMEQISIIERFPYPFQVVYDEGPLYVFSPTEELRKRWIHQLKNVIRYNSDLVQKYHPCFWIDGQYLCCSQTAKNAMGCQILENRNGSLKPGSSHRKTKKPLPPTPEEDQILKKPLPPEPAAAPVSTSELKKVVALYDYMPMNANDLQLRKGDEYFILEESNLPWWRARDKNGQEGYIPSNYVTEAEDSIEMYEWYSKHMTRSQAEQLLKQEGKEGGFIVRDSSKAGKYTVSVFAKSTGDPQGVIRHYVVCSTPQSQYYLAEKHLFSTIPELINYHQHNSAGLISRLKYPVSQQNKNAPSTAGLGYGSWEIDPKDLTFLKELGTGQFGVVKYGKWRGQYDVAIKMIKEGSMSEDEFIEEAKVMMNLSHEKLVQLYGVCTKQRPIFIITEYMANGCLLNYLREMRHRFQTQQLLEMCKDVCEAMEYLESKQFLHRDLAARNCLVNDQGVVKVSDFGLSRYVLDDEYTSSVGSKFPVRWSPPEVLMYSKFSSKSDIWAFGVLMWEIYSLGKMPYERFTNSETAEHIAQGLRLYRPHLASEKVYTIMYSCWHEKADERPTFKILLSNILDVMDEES

Row | SMILES | IC50 [1] | IC50 [2]
1 | C=CC(=O)Nc1cccc(Oc2nc(Nc3ccc(N[C@@H]4CCN(CCF)C4)cc3)ncc2F)c1 [Compound I-19, (R)—N-(3-(5-fluoro-2-(4-(1-(2-fluoroethyl)pyrrolidin-3-ylamino)phenylamino)pyrimidin-4-yloxy)phenyl)acrylamide] | ≤ 10 nM | 
2 | C=CC(=O)Nc1cccc(Oc2nc(Nc3ccc(N4CCN(C)CC4)c(F)c3)ncc2O)c1 [Compound I-23a, N-(3-(2-(3-fluoro-4-(4-methylpiperazin-1-yl)phenylamino)-5-hydroxypyrimidin-4-yloxy)phenyl)acrylamide] | 10 to 100 nM | ≥ 400 nM
3 | C=CC(=O)Nc1cccc(Oc2nc(Nc3ccc(OCCOC)c(F)c3)nc3[nH]ccc23)c1 [Compound I-24a, N-(3-(2-(3-fluoro-4-(2-methoxyethoxy)phenylamino)-7H-pyrrolo[2,3-d]pyrimidin-4-yloxy)phenyl)acrylamide] | 10 to 100 nM | 
4 | C=CC(=O)Nc1cccc(Oc2nc(Nc3ccc(N(C)[C@H]4CCN(CCF)C4)cc3)nc3[nH]ccc23)c1 [Compound I-26a, (S)—N-(3-(2-(4-((1-(2-fluoroethyl)pyrrolidin-3-yl)(methyl)amino)phenylamino)-7H-pyrrolo[2,3-d]pyrimidin-4-yloxy)phenyl)acrylamide] | 10 to 100 nM | 
5 | C=CC(=O)Nc1cccc(Oc2nc(Nc3ccc(N[C@H]4CCN(CCF)C4)cc3)nc3[nH]ccc23)c1 [Compound I-27a, (S)—N-(3-(2-(4-(1-(2-fluoroethyl)pyrrolidin-3-ylamino)phenylamino)-7H-pyrrolo[2,3-d]pyrimidin-4-yloxy)phenyl)acrylamide] | ≤ 10 nM | 
6 | C=CC(=O)Nc1cccc(Oc2nc(Nc3cccc4c3CCN4CCOC)ncc2OC)c1 [Compound I-28a, N-(3-(5-methoxy-2-(1-(2-methoxyethyl)indolin-4-ylamino)pyrimidin-4-yloxy)phenyl)acrylamide] | 10 to 100 nM | 
7 | C=CC(=O)Nc1cccc(Nc2nc(Nc3cccc4c3CCN4CCOC)ncc2OC)c1 [Compound I-29a, N-(3-(5-methoxy-2-(1-(2-methoxyethyl)indolin-4-ylamino)pyrimidin-4-ylamino)phenyl)acrylamide] | ≥ 100 nM | 
8 | C=CC(=O)Nc1cccc(Oc2nc(Nc3ccc(N[C@H]4CCN(CCOC)C4)cc3)ncc2OC)c1 [Compound I-30a, (S)—N-(3-(5-methoxy-2-(4-(1-(2-methoxyethyl)pyrrolidin-3-ylamino)phenylamino)pyrimidin-4-yloxy)phenyl)acrylamide] | ≤ 10 nM | ≤ 200 nM
9 | C=CC(=O)Nc1cccc(Nc2nc(Nc3ccc(N[C@H]4CCN(CCOC)C4)cc3)ncc2OC)c1 [Compound I-31a, (S)—N-(3-(5-methoxy-2-(4-(1-(2-methoxyethyl)pyrrolidin-3-ylamino)phenylamino)pyrimidin-4-ylamino)phenyl)acrylamide] | ≤ 10 nM | ≥ 400 nM
10 | C=CC(=O)Nc1cccc(Oc2nc(Nc3ccc(NCCOC)cc3)ncc2OC)c1 [Compound I-32a, N-(3-(5-methoxy-2-(4-(2-methoxyethylamino)phenylamino)pyrimidin-4-yloxy)phenyl)acrylamide] | ≤ 10 nM | ≥ 400 nM
11 | C=CC(=O)Nc1cccc(Oc2nc(Nc3ccc(N(C)CCOC)nc3)ncc2OC)c1 [Compound I-33a, N-(3-(5-methoxy-2-(6-((2-methoxyethyl)(methyl)amino)pyridin-3-ylamino)pyrimidin-4-yloxy)phenyl)acrylamide] | 10 to 100 nM | ≥ 400 nM
12 | C=CC(=O)Nc1cccc(Oc2nc(Nc3ccc4c(c3)CCN4CCOC)ncc2OC)c1 [Compound I-34a, N-(3-(5-methoxy-2-(1-(2-methoxyethyl)indolin-5-ylamino)pyrimidin-4-yloxy)phenyl)acrylamide] | ≤ 10 nM | ≥ 400 nM
13 | C=CC(=O)Nc1cccc(Oc2nc(Nc3ccc(N(C)CCOC)cc3)ncc2OC)c1 [Compound I-35a, N-(3-(5-methoxy-2-(4-((2-methoxyethyl)(methyl)amino)phenylamino)pyrimidin-4-yloxy)phenyl)acrylamide] | ≤ 10 nM | 200 to 400 nM
14 | C=CC(=O)Nc1cccc(Oc2nc(Nc3ccc(N(C)[C@H]4CCN(CCOC)C4)cc3OC)ncc2OC)c1 [Compound I-55a, (S)—N-(3-(5-methoxy-2-(2-methoxy-4-((1-(2-methoxyethyl)pyrrolidin-3-yl)(methyl)amino)phenylamino)pyrimidin-4-yloxy)phenyl)acrylamide] | ≥ 100 nM | 
15 | C=CC(=O)Nc1cccc(Oc2nc(Nc3ccc4c(c3)CCN4S(C)(=O)=O)ncc2OC)c1 [Compound I-59a, N-(3-(5-methoxy-2-(1-(methylsulfonyl)indolin-5-ylamino)pyrimidin-4-yloxy)phenyl)acrylamide] | ≤ 10 nM | 

Continued, values first:

Row | IC50 [1] | IC50 [2] | SMILES
16 | ≤ 10 nM |  | C=CC(=O)Nc1cccc(Oc2nc(Nc3ccc(N(C)[C@H]4CCN(S(C)(=O)=O)C4)cc3)ncc2OC)c1 [Compound I-60a, (S)—N-(3-(5-methoxy-2-(4-(methyl(1-(methylsulfonyl)pyrrolidin-3-yl)amino)phenylamino)pyrimidin-4-yloxy)phenyl)acrylamide]
17 | ≤ 10 nM |  | C=CC(=O)Nc1cccc(Oc2nc(Nc3ccc(N[C@H]4CCN(C(C)=O)C4)cc3)nc3[nH]ccc23)c1 [Compound I-61a, (S)—N-(3-(2-(4-(1-acetylpyrrolidin-3-ylamino)phenylamino)-7H-pyrrolo[2,3-d]pyrimidin-4-yloxy)phenyl)acrylamide]
18 | ≤ 10 nM |  | C=CC(=O)Nc1cccc(Oc2nc(Nc3ccc(N[C@H]4CCN(S(C)(=O)=O)C4)cc3)nc3[nH]ccc23)c1 [Compound I-62a, (S)—N-(3-(2-(4-(1-(methylsulfonyl)pyrrolidin-3-ylamino)phenylamino)-7H-pyrrolo[2,3-d]pyrimidin-4-yloxy)phenyl)acrylamide]
19 | ≤ 10 nM |  | C=CC(=O)Nc1cccc(Oc2nc(Nc3ccc(N(C)[C@H]4CCN(S(C)(=O)=O)C4)cc3)nc3[nH]ccc23)c1 [Compound I-63a, (S)—N-(3-(2-(4-(methyl(1-(methylsulfonyl)pyrrolidin-3-yl)amino)phenylamino)-7H-pyrrolo[2,3-d]pyrimidin-4-yloxy)phenyl)acrylamide]
20 | ≤ 10 nM |  | C=CC(=O)Nc1cccc(Oc2nc(Nc3ccc(N(C)[C@H]4CCN(C(C)=O)C4)cc3)nc3[nH]ccc23)c1 [Compound I-64a, (S)—N-(3-(2-(4-((1-acetylpyrrolidin-3-yl)(methyl)amino)phenylamino)-7H-pyrrolo[2,3-d]pyrimidin-4-yloxy)phenyl)acrylamide]
21 | ≤ 10 nM |  | C=CC(=O)Nc1cccc(Oc2nc(Nc3ccc(N4CCN(CCOC)CC4)cc3)nc3[nH]cnc23)c1 [Compound I-65a, N-(3-(2-(4-(4-(2-methoxyethyl)piperazin-1-yl)phenylamino)-9H-purin-6-yloxy)phenyl)acrylamide]
22 | ≤ 10 nM |  | C=CC(=O)Nc1cccc(Oc2nc(Nc3ccc(N[C@H]4CCN(C(C)=O)C4)cc3)ncc2OC)c1 [Compound I-66a, (S)—N-(3-(2-(4-((1-acetylpyrrolidin-3-yl)amino)phenylamino)-5-methoxypyrimidin-4-yloxy)phenyl)acrylamide]
23 | 10 to 100 nM |  | C=CC(=O)Nc1cccc(Oc2nc(Nc3ccc(N[C@H]4CCN(CCOC)C4)cc3)nc3[nH]cnc23)c1 [Compound I-67a, (S)—N-(3-(2-(4-(1-(2-methoxyethyl)pyrrolidin-3-ylamino)phenylamino)-9H-purin-6-yloxy)phenyl)acrylamide]
24 | 10 to 100 nM |  | C=CC(=O)Nc1cccc(Oc2nc(Nc3ccc(N4CCN(C(C)=O)CC4)cc3)nc3[nH]cnc23)c1 [Compound I-68a, N-(3-(2-(4-(4-acetylpiperazin-1-yl)phenylamino)-9H-purin-6-yloxy)phenyl)acrylamide]
25 | 10 to 100 nM |  | C=CC(=O)Nc1cccc(Oc2nc(Nc3ccc(N4CCN(CCS(C)(=O)=O)CC4)cc3)nc3[nH]cnc23)c1 [Compound I-69a, N-(3-(2-(4-(4-(2-(methylsulfonyl)ethyl)piperazin-1-yl)phenylamino)-9H-purin-6-yloxy)phenyl)acrylamide]
26 | 10 to 100 nM |  | C=CC(=O)Nc1cccc(Oc2nc(Nc3ccc4c(c3)CS(=O)(=O)N4)ncc2OC)c1 [Compound I-70a, N-(3-((2-((2,2-dioxido-1,3-dihydrobenzo[c]isothiazol-5-yl)amino)-5-methoxypyrimidin-4-yl)oxy)phenyl)acrylamide]
27 | ≤ 10 nM |  | C=CC(=O)Nc1cccc(Oc2nc(Nc3ccc(N(C)[C@H]4CCN(S(C)(=O)=O)C4)cc3)nc3[nH]cnc23)c1 [Compound I-71a, (S)—N-(3-(2-(4-(methyl(1-(methylsulfonyl)pyrrolidin-3-yl)amino)phenylamino)-9H-purin-6-yloxy)phenyl)acrylamide]
28 | ≤ 10 nM |  | C=CC(=O)Nc1cccc(Oc2nc(Nc3ccc(N(C)[C@@H]4CCN(C(C)=O)C4)cc3)ncc2OC)c1 [Compound I-72a, (R)—N-(3-(2-(4-((1-acetylpyrrolidin-3-yl)(methyl)amino)phenylamino)-5-methoxypyrimidin-4-yloxy)phenyl)acrylamide]
